# Measured values as given in paper PMC12192727, “Strategies to Develop Na,K-ATPase-α4 Inhibitors as Male Contraceptives” (International Journal of Molecular Sciences, 2025).
# Tests used:
# hERG channel = hERG channel (Homo sapiens, UniProt Q12809); test: hERG inhibition manual patch-clamp assay (HEK293)
# mouse sperm = test: Sperm motility after intraperitoneal administration to mice; assay type: in vivo; conditions: intraperitoneal 40 mg/kg for three days
# Protocol: To determine whether our compounds had in vivo activity, we tested the effect of 45 after intraperitoneal administration to mice. Compound 45 was injected at a dose of 40 mg/kg for three days. This procedure is based on our previous protocol used for ouabain derivatives. After treatment for 3 days, the animals were sacrificed, sperm was isolated from the cauda epididymis, and sperm motility was assessed using CASA. Compound 45 inhibited total sperm motility by approximately 60% (Figure 9A).
# Compound 45 was administered to mice by intraperitoneal injection at a dose of 40 mg/kg of body weight for three days. This protocol was used based on our previous results. At day 3 of treatment, the animals were sacrificed, and sperm was collected from the caudal section of the epididymis. Sperm was incubated under non-capacitating and capacitating conditions, and total and hyperactive sperm motility was determined using CASA.
# Figure 9 Effect of compound 45 on total (A) and hyperactive (B) sperm motility in mice in vivo. 45 was administered via intraperitoneal injection at a dosage of 40 mg/kg of body weight for 3 days. Total and hyperactive sperm motility was assessed using sperm from the cauda epididymis. Hyperactive motility was evaluated after incubating the cells in a medium that supports sperm capacitation for 1 h. Sperm motility was analyzed using CASA. […]
# [1] = LogD, 1-octanol/phosphate buffer pH 7.4; assay type: physicochemical
# human hepatocytes = test: Metabolic stability in human hepatocytes; assay type: in vitro ADME
# Protocol: (§1) The in vitro metabolic half-life (t1/2) is calculated using the slope of the log−linear regression from the percentage of the parent compound remaining versus the time relationship (κ). The experimental details are reported in the Supporting Information (Tables S6 and S7).
# [2] = Metabolic stability in human hepatocytes; assay type: in vitro ADME; conditions: human hepatocytes
# Protocol: as §1
# [3] = Metabolic stability in mouse hepatocytes; assay type: in vitro ADME; conditions: mouse hepatocytes
# Protocol: as §1
# hERG channel, sequence (Q12809 whole entry): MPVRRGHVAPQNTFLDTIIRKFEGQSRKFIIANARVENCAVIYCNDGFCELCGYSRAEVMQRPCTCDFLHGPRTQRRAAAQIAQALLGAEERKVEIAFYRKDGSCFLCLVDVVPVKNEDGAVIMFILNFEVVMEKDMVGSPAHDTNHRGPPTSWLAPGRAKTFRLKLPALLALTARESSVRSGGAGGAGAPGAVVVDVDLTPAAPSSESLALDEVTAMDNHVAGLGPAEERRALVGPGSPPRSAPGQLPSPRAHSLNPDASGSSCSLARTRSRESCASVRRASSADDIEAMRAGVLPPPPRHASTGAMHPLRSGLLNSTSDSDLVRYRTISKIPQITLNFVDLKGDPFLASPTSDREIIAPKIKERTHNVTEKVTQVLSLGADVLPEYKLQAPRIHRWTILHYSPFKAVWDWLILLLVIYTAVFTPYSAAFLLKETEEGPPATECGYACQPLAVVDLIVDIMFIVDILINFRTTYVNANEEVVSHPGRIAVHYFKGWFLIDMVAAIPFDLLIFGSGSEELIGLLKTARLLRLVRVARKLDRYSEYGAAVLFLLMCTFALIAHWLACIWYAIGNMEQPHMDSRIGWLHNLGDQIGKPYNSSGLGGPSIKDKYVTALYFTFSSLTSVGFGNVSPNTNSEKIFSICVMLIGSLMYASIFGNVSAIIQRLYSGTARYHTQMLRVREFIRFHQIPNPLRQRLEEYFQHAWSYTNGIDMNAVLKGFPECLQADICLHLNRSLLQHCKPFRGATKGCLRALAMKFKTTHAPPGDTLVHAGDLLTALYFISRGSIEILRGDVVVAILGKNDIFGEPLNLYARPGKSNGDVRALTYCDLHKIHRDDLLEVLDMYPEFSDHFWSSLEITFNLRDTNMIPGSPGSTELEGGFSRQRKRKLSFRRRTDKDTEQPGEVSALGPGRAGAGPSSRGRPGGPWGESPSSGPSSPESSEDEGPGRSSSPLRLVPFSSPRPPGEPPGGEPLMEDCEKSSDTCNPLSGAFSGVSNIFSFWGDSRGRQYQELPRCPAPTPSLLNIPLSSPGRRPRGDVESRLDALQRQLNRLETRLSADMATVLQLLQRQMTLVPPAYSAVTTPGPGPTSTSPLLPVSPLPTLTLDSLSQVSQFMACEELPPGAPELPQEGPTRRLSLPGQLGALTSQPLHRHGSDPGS
smiles,measurement,setting,value
"CC12CCC(=O)C=C1CCCC2n1cc(-c2ccccc2)nn1 (stereo not shown) [Compound 45, 4a-Methyl-5-(4-phenyl-1H-1,2,3-triazol-1-yl)-4,4a,5,6,7,8-hexahydronaphthalen-2(3H)-one]",IC50,hERG channel,> 30 µM
same,Hyperactive sperm motility in vivo,mouse sperm; capacitating medium 1 h,reduced
same,Inhibition of total sperm motility in vivo,"mouse sperm; cauda epididymis sperm, CASA",approximately 60%
same,logD,[1],2.66
same,Remaining Percentage (%),"human hepatocytes; human boiled hepatocytes, 0 min",100.00%
same,Remaining Percentage (%),"human hepatocytes; human boiled hepatocytes, 15 min",105.47%
same,Remaining Percentage (%),"human hepatocytes; human boiled hepatocytes, 30 min",106.55%
same,Remaining Percentage (%),"human hepatocytes; human boiled hepatocytes, 60 min",108.22%
same,Remaining Percentage (%),"human hepatocytes; human boiled hepatocytes, 90 min",105.29%
same,Remaining Percentage (%),"human hepatocytes; human boiled hepatocytes, 120 min",107.99%
same,Hepatic Extraction Ratio (E),human hepatocytes; human hepatocytes,0.82
same,Predicted hepatic CL,human hepatocytes; human hepatocytes,16.89 mL/min/kg
same,Remaining Percentage (%),"human hepatocytes; human hepatocytes, 0 min",100.00%
same,Remaining Percentage (%),"human hepatocytes; human hepatocytes, 15 min",83.47%
same,Remaining Percentage (%),"human hepatocytes; human hepatocytes, 30 min",64.22%
same,Remaining Percentage (%),"human hepatocytes; human hepatocytes, 60 min",39.26%
same,Remaining Percentage (%),"human hepatocytes; human hepatocytes, 90 min",22.24%
same,Remaining Percentage (%),"human hepatocytes; human hepatocytes, 120 min",11.51%
same,"Metabolic Stability in Hepatocytes (60 min), compound remaining","human hepatocytes; human, 60 min",39%
same,hepatocyte CLint at 1 μM,[2]; read-out: In vitro Clint,36 µL/min/1e6 cells
same,CLint scaled at 1 µM,[2]; read-out: Scale-up Clint,91.7 mL/min/kg
same,half-life at 1 µM,"[2]; human, hepatocytes, read-out: In vitro T1/2",38.5 min
same,hepatocyte CLint at 1 μM,[3]; read-out: In vitro Clint,77.1 µL/min/1e6 cells
same,CLint scaled at 1 µM,[3]; read-out: Scale-up Clint,911 mL/min/kg
same,half-life at 1 µM,"[3]; mouse, hepatocytes, read-out: In vitro T1/2",18 min
